Data as given in patent US12157741B2, “Macrocyclic inhibitors of DYRK1A” (DANA-FARBER CANCER INSTITUTE, INC., priority 2018, dated 2024).
Where two headings read alike, the source gives them in different places.

Assays:
Type in all cases: binding
[1] = target: various enzymes (Homo sapiens, UniProt O00238); conditions: compound 1 uM
Procedure: (§1) Ambit profiling was conducted in accordance with the manufacturer's instructions.

[2] = target: various enzymes (Homo sapiens, UniProt O14578); conditions: compound 1 uM
Procedure: as §1

[3] = target: various enzymes (Homo sapiens, UniProt O14730); conditions: compound 1 uM
Procedure: as §1

[4] = target: T1, various enzymes (Homo sapiens, UniProt O14757); conditions: compound 1 uM
T1 sequence (O14757 1-476): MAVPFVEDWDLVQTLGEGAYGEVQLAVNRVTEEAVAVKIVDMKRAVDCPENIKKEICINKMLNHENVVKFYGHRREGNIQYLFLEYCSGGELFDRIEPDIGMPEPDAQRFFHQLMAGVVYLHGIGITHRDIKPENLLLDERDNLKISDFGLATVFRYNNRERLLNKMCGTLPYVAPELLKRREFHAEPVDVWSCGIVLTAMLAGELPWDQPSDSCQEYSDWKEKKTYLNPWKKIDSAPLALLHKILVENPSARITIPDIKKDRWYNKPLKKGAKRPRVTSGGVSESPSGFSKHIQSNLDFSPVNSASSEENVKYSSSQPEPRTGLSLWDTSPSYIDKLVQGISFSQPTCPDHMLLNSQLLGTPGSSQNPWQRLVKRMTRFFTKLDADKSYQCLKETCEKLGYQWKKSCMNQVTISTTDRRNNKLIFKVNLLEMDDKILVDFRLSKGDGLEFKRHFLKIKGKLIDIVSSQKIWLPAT
Procedure: as §1

[5] = target: various enzymes (Homo sapiens, UniProt O14936); conditions: compound 1 uM
Procedure: as §1

[6] = target: various enzymes (Homo sapiens, UniProt O43293); conditions: compound 1 uM
Procedure: as §1

[7] = target: various enzymes (Homo sapiens, UniProt O43318); conditions: compound 1 uM
Procedure: as §1

[8] = target: various enzymes (Homo sapiens, UniProt P00533, T790M)
Procedure: as §1

[9] = target: various enzymes (Homo sapiens, UniProt P08581); conditions: compound 1 uM
Procedure: as §1

[10] = target: various enzymes (Homo sapiens, UniProt P10721, D816V)
Procedure: as §1

[11] = target: various enzymes (Homo sapiens, UniProt P11362); conditions: compound 1 uM
Procedure: as §1

[12] = target: various enzymes (Homo sapiens, UniProt P12931); conditions: compound 1 uM
Procedure: as §1

[13] = target: various enzymes (Homo sapiens, UniProt P17612); conditions: compound 1 uM
Procedure: as §1

[14] = target: various enzymes (Homo sapiens, UniProt P21127); conditions: compound 1 uM
Procedure: as §1

[15] = target: various enzymes (Homo sapiens, UniProt P21709); conditions: compound 1 uM
Procedure: as §1

[16] = target: various enzymes (Homo sapiens, UniProt P22607); conditions: compound 1 uM
Procedure: as §1

[17] = target: various enzymes (Homo sapiens, UniProt P28482); conditions: compound 1 uM
Procedure: as §1

[18] = target: various enzymes (Homo sapiens, UniProt P36894); conditions: compound 1 uM
Procedure: as §1

[19] = target: various enzymes (Homo sapiens, UniProt P42336, E545K)
Procedure: as §1

[20] = target: various enzymes (Homo sapiens, UniProt P42681); conditions: compound 1 uM
Procedure: as §1

[21] = target: various enzymes (Homo sapiens, UniProt P42684); conditions: compound 1 uM
Procedure: as §1

[22] = target: various enzymes (Homo sapiens, UniProt P52333); conditions: compound 1 uM
Procedure: as §1

[23] = target: various enzymes (Homo sapiens, UniProt P53778); conditions: compound 1 uM
Procedure: as §1

[24] = target: various enzymes (Homo sapiens, UniProt Q02156); conditions: compound 1 uM
Procedure: as §1

[25] = target: various enzymes (Homo sapiens, UniProt Q15208); conditions: compound 1 uM
Procedure: as §1

[26] = target: various enzymes (Homo sapiens, UniProt Q15303); conditions: compound 1 uM
Procedure: as §1

[27] = target: various enzymes (Homo sapiens, UniProt Q15835); conditions: compound 1 uM
Procedure: as §1

[28] = target: various enzymes (Homo sapiens, UniProt Q32MK0); conditions: compound 1 uM
Procedure: as §1

[29] = target: various enzymes (Homo sapiens, UniProt Q5VT25); conditions: compound 1 uM
Procedure: as §1

[30] = target: various enzymes (Homo sapiens, UniProt Q6P2M8); conditions: compound 1 uM
Procedure: as §1

[31] = target: various enzymes (Homo sapiens, UniProt Q86Y07); conditions: compound 1 uM
Procedure: as §1

[32] = target: various enzymes (Homo sapiens, UniProt Q8NFD2); conditions: compound 1 uM
Procedure: as §1

[33] = target: various enzymes (Homo sapiens, UniProt Q99755); conditions: compound 1 uM
Procedure: as §1

[34] = target: various enzymes (Homo sapiens, UniProt Q9H1R3); conditions: compound 1 uM
Procedure: as §1

[35] = target: various enzymes (Homo sapiens, UniProt Q9H422); conditions: compound 1 uM
Procedure: as §1

[36] = target: various enzymes (Homo sapiens, UniProt Q9H4A3); conditions: compound 1 uM
Procedure: as §1

[37] = target: various enzymes (Homo sapiens, UniProt Q9UF33); conditions: compound 1 uM
Procedure: as §1

[38] = target: various enzymes (Homo sapiens, UniProt Q9Y2K2); conditions: compound 1 uM
Procedure: as §1

Chain of various enzymes (Homo sapiens, UniProt P53778) (P53778 whole entry): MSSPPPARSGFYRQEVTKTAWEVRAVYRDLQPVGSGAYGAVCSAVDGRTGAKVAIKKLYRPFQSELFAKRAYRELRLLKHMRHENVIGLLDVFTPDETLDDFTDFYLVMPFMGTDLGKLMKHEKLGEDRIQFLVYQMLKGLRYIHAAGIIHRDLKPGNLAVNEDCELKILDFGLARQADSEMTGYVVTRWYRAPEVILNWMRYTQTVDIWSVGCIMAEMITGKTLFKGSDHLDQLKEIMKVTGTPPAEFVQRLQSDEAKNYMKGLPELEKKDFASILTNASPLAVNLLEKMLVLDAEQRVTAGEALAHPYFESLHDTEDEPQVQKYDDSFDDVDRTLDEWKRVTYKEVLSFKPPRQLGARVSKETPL
Chain of various enzymes (Homo sapiens, UniProt Q6P2M8) (Q6P2M8 whole entry): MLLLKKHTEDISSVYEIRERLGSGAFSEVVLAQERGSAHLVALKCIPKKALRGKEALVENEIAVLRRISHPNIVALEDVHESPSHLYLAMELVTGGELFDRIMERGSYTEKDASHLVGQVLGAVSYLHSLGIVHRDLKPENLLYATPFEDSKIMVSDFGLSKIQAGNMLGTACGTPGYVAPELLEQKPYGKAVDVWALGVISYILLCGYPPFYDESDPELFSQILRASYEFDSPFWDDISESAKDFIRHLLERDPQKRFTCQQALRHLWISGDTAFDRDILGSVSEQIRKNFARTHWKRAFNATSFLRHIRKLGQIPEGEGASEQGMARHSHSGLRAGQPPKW
Chain of various enzymes (Homo sapiens, UniProt O14730) (O14730 whole entry): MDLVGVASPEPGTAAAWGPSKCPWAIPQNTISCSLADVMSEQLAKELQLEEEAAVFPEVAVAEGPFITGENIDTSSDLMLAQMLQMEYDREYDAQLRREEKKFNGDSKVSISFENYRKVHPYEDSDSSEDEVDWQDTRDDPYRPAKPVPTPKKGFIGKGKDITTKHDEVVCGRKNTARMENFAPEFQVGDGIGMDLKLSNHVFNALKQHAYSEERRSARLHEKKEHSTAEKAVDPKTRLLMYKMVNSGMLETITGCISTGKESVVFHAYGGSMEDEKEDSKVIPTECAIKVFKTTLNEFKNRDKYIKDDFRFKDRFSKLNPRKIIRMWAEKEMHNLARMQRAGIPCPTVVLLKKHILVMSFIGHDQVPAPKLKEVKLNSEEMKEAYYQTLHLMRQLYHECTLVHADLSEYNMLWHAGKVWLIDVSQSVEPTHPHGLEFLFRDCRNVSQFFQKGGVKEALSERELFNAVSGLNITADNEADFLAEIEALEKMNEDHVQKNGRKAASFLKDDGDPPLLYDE
Chain of various enzymes (Homo sapiens, UniProt P12931) (P12931 whole entry): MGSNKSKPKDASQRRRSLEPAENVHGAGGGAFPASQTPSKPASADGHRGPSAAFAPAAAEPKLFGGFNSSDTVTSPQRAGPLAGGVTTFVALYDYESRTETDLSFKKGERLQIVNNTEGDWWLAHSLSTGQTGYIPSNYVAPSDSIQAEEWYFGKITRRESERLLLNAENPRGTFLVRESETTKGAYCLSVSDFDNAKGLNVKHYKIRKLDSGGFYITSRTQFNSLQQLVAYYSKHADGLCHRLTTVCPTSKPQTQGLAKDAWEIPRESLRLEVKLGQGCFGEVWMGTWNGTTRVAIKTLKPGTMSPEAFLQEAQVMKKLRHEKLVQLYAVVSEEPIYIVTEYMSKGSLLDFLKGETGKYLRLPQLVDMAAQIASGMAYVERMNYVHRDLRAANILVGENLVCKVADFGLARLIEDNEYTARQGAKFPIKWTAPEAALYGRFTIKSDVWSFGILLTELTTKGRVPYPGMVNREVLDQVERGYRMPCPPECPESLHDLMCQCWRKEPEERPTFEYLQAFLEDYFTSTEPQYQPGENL
Chain of various enzymes (Homo sapiens, UniProt Q02156) (Q02156 whole entry): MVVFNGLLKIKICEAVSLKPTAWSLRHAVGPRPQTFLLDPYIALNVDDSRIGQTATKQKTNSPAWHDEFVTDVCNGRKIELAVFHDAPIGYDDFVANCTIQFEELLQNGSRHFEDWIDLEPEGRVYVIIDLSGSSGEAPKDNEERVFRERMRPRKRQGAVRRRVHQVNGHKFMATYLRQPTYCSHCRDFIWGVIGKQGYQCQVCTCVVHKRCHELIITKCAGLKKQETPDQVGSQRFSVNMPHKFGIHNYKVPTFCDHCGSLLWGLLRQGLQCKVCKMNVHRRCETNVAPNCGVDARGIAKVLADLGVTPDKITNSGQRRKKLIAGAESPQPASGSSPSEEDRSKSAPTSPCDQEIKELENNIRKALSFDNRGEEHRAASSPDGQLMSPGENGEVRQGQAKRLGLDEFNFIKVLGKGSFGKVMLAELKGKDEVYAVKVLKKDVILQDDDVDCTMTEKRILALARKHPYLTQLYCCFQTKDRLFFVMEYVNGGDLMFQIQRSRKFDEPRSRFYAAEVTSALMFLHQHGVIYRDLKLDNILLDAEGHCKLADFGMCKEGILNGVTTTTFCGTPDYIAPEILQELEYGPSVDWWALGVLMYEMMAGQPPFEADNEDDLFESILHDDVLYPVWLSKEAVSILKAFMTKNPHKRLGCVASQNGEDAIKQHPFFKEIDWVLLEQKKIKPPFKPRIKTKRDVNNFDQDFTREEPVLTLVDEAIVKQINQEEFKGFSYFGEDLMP
Chain of various enzymes (Homo sapiens, UniProt P42681) (P42681 whole entry): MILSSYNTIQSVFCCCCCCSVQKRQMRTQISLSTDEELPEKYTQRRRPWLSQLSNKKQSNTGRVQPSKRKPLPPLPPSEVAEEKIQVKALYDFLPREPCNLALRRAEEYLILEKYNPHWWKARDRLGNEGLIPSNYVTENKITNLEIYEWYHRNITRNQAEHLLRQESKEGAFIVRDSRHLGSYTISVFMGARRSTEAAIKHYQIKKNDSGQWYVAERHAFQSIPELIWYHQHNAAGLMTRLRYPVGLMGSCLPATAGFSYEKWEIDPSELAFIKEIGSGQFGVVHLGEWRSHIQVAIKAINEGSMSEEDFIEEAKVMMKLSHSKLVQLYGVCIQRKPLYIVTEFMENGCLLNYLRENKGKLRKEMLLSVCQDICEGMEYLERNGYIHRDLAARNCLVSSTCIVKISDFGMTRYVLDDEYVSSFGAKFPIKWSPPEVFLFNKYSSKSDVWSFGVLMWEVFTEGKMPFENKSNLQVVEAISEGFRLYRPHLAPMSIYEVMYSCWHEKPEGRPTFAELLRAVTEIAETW
Chain of various enzymes (Homo sapiens, UniProt O00238) (O00238 14-502): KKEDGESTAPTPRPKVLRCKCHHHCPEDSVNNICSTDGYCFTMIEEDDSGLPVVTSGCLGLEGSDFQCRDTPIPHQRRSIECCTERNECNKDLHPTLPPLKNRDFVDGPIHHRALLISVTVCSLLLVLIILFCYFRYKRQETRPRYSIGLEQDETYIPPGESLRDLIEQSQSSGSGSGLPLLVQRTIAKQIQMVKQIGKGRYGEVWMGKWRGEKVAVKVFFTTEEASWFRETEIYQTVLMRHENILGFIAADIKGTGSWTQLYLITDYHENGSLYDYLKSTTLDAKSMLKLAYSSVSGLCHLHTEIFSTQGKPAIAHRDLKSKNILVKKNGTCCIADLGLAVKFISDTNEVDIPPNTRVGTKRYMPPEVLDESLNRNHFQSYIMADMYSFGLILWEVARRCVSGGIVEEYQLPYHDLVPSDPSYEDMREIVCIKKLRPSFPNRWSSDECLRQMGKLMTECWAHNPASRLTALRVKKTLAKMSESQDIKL
Chain of various enzymes (Homo sapiens, UniProt P21709) (P21709 26-976): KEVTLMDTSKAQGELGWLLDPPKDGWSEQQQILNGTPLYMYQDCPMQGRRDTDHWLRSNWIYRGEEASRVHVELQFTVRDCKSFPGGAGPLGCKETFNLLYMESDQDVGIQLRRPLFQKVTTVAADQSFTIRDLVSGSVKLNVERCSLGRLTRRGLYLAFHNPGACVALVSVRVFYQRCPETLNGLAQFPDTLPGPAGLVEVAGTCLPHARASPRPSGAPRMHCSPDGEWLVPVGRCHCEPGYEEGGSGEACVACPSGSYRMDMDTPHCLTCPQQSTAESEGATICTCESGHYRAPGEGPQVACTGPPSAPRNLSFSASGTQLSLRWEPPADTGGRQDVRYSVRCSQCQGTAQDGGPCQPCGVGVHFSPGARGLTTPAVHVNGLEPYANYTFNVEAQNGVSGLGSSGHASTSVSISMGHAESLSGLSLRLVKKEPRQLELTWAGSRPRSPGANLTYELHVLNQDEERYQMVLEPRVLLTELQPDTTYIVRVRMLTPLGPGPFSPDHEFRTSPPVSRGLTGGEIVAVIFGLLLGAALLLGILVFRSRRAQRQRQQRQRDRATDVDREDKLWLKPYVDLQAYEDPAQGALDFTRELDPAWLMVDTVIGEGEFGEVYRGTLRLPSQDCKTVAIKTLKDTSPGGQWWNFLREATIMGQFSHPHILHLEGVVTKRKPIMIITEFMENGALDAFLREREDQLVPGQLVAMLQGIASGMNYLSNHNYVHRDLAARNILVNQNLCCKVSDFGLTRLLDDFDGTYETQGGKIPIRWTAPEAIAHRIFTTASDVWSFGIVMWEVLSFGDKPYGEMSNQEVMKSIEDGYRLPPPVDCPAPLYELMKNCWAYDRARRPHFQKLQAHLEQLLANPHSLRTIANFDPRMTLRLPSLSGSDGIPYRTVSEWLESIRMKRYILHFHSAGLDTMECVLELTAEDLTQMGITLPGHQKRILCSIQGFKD
Chain of various enzymes (Homo sapiens, UniProt Q15208) (Q15208 whole entry): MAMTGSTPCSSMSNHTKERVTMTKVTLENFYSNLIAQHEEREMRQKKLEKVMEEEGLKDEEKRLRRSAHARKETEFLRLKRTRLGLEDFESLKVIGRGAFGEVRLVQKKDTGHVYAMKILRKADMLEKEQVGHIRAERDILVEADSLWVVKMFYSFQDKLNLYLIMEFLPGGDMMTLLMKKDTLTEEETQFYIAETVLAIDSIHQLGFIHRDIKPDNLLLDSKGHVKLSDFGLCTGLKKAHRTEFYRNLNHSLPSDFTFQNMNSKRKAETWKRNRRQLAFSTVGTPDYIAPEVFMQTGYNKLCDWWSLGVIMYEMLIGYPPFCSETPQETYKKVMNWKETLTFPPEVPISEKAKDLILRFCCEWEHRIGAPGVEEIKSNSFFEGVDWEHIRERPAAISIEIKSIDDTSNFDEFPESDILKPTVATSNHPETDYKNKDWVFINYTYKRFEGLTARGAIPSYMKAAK

Compound	Ambit profiling: BMPR1B [1]	Ambit profiling: CIT [2]	Ambit profiling: RIOK3 [3]	Ambit profiling: CHEK1 [4]	Ambit profiling: CASK [5]	Ambit profiling: DAPK3 [6]	Ambit profiling: TAK1 [7]	Ambit profiling: MET [9]	Ambit profiling: FGFR1 [11]	Ambit profiling: SRC [12]	Ambit profiling: PKAC-alpha [13]	Ambit profiling: CDC2L1 [14]	Ambit profiling: EPHA1 [15]	Ambit profiling: FGFR3 [16]	Ambit profiling: ERK2 [17]	Ambit profiling: BMPR1A [18]	Ambit profiling: TXK [20]	Ambit profiling: ABL2 [21]	Ambit profiling: JAK3(JH1domain-catalytic) [22]	Ambit profiling: p38-gamma [23]	other results
CC(C)N1Cc2nn(C)cc2-c2cnc3[nH]cc(c3c2)-c2cn(nc2C(F)(F)F)CCCC1=O [Compound 45, (Z)-5-isopropyl-31-methyl-13-(trifluoromethyl)-11H,21H,31H-5-aza-2(3,5)-pyrrolo[2,3-b]pyridina-1(4,1),3(4,3)-dipyrazolacyclononaphan-6-one]	6.8	17	6	100	7.4	99	4.1	11	2.5	25	51	100	26	5.4	100	97	15	42	0	74	Ambit profiling: EGFR(T790M) ([8]; compound 1 uM): 65; Ambit profiling: KIT(D816V) ([10]; compound 1 uM): 4.2; Ambit profiling: PIK3CA(E545K) ([19]; compound 1 uM): 51; Ambit profiling: PRKCE [24]: 90; Ambit profiling: NDR1 [25]: 59; Ambit profiling: ERBB4 [26]: 55; Ambit profiling: GRK1 [27]: 17; Ambit profiling: MLCK [28]: 99; Ambit profiling: MRCKA [29]: 100; Ambit profiling: CAMK1B [30]: 25; Ambit profiling: VRK2 [31]: 37; Ambit profiling: ANKK1 [32]: 100; Ambit profiling: PIP5K1A [33]: 27; Ambit profiling: MYLK2 [34]: 29; Ambit profiling: HIPK3 [35]: 15; Ambit profiling: WNK1 [36]: 100; Ambit profiling: EPHA6 [37]: 18; Ambit profiling: QSK [38]: 32
COc1c2c(nn1C)CN(C(C)C)C(=O)CCCn1cc(c(C(F)(F)F)n1)-c1c[nH]c3ncc-2cc13 [Compound 50, (Z)-5-isopropyl-35-methoxy-31-methyl-13-(trifluoromethyl)-11H,21H,31H-5-aza-2(3,5)-pyrrolo[2,3-b]pyridina-1(4,1),3(4,3)-dipyrazolacyclononaphan-6-one]	5.1	31	11	100	36	71	9.1	3.8	5.8	13	72	73	29	7.6	87	88	3.2	22	0	75	Ambit profiling: EGFR(T790M) [8]: 32; Ambit profiling: KIT(D816V) [10]: 0.35; Ambit profiling: PIK3CA(E545K) [19]: 74; Ambit profiling: PRKCE [24]: 30; Ambit profiling: NDR1 [25]: 64; Ambit profiling: ERBB4 [26]: 32; Ambit profiling: GRK1 [27]: 44; Ambit profiling: MLCK [28]: 82; Ambit profiling: MRCKA [29]: 99; Ambit profiling: CAMK1B [30]: 16; Ambit profiling: VRK2 [31]: 20; Ambit profiling: ANKK1 [32]: 94; Ambit profiling: PIP5K1A [33]: 19; Ambit profiling: MYLK2 [34]: 39; Ambit profiling: HIPK3 [35]: 26; Ambit profiling: WNK1 [36]: 100; Ambit profiling: EPHA6 [37]: 14; Ambit profiling: QSK [38]: 73
